Source: patent US11033641B2, “Radiolabelled mGluR2/3 pet ligands” (Janssen Pharmaceutica NV, priority 2015, dated 2021)

Experiment: Ex-vivo biodistribution in SD rats
Set-up: species or system Sprague Dawley rats
Procedure: Sprague-Dawley rats obtained from Harlan (the Netherlands), were housed in groups of four to six per cage until treatment. They were kept at a constant temperature of 21° C. and at a 12-h light/dark cycle, in which lights were switched on at 8:00 a.m. Animals had unrestricted access to food (Teklad Global 16% Protein Rodent Diet, Harlan, Madison, Wis., USA) and water. All animal experiments were performed in compliance with Belgium laws on animal experimentation and after approval by the local animal ethics committee.
The biodistribution of [^18F]-1 was determined at 2, 10, 30 and 60 min, after injection in Sprague Dawley (SD) rats (n=3 per time point) while for [^18F]-2 the 30 min time point was not performed. Rats were injected intravenously with 0.7-1.1 MBq via a tail vein and euthanized at the time points indicated above, under isoflurane anesthesia. All tissues were dissected, weighed and counted for radioactivity in a gamma counter.
The biodistribution of [^18F]-1 was determined at 2, 10, 30 and 60 min, after injection in Sprague Dawley rats (n=3 per time point). Rats were injected intravenously with 0.7-1.1 MBq via a tail vein and euthanized at the time points indicated above, under isoflurane anesthesia. All tissues were dissected, weighed and counted for radioactivity in a gamma counter.

SMILES: C[C@H]1CN(c2ccc(C(F)(F)F)cc2)C(=O)c2c(C#Cc3cnc(N)cc3C[18F])cnn21 [Compound 1]
- Biodistribution, mean SUV (blood, 2 min after i.v. injection): 1.12 SUV
- Biodistribution, mean SUV (blood, 10 min after i.v. injection): 0.74 SUV
- Biodistribution, mean SUV (blood, 30 min after i.v. injection): 0.47 SUV
- Biodistribution, mean SUV (blood, 60 min after i.v. injection): 0.50 SUV
- Biodistribution, mean SUV (bone, 2 min after i.v. injection): 0.39 SUV
- Biodistribution, mean SUV (bone, 10 min after i.v. injection): 0.34 SUV
- Biodistribution, mean SUV (bone, 30 min after i.v. injection): 0.48 SUV
- Biodistribution, mean SUV (bone, 60 min after i.v. injection): 0.58 SUV
- Biodistribution, mean SUV (cerebellum, 2 min after i.v. injection): 2.25 SUV
- Biodistribution, mean SUV (cerebellum, 10 min after i.v. injection): 3.17 SUV
- Biodistribution, mean SUV (cerebellum, 30 min after i.v. injection): 3.93 SUV
- Biodistribution, mean SUV (cerebellum, 60 min after i.v. injection): 4.41 SUV
- Biodistribution, mean SUV (cerebrum + cerebellum, 2 min after i.v. injection): 2.03 SUV
- Biodistribution, mean SUV (cerebrum + cerebellum, 10 min after i.v. injection): 3.11 SUV
- Biodistribution, mean SUV (cerebrum + cerebellum, 30 min after i.v. injection): 3.98 SUV
- Biodistribution, mean SUV (cerebrum + cerebellum, 60 min after i.v. injection): 4.95 SUV
- Biodistribution, mean SUV (cortex, 2 min after i.v. injection): 3.50 SUV
- Biodistribution, mean SUV (cortex, 10 min after i.v. injection): 8.37 SUV
- Biodistribution, mean SUV (cortex, 30 min after i.v. injection): 6.96 SUV
- Biodistribution, mean SUV (cortex, 60 min after i.v. injection): 8.11 SUV
- Brain uptake, in words (ex-vivo biodistribution): very high
- Defluorination judged from bone uptake over time (ex-vivo biodistribution): some defluorination
- Peripheral uptake, in words (ex-vivo biodistribution): highest uptake in the liver
- Biodistribution, mean SUV (heart, 2 min after i.v. injection): 3.54 SUV
- Biodistribution, mean SUV (heart, 10 min after i.v. injection): 2.11 SUV
- Biodistribution, mean SUV (heart, 30 min after i.v. injection): 1.41 SUV
- Biodistribution, mean SUV (heart, 60 min after i.v. injection): 1.30 SUV
- Biodistribution, mean SUV (hippocampus, 2 min after i.v. injection): 1.53 SUV
- Biodistribution, mean SUV (hippocampus, 10 min after i.v. injection): 2.49 SUV
- Biodistribution, mean SUV (hippocampus, 30 min after i.v. injection): 3.10 SUV
- Biodistribution, mean SUV (hippocampus, 60 min after i.v. injection): 3.90 SUV
- Biodistribution, mean SUV (kidneys, 2 min after i.v. injection): 4.97 SUV
- Biodistribution, mean SUV (kidneys, 10 min after i.v. injection): 2.58 SUV
- Biodistribution, mean SUV (kidneys, 30 min after i.v. injection): 2.08 SUV
- Biodistribution, mean SUV (kidneys, 60 min after i.v. injection): 2.16 SUV
- Biodistribution, mean SUV (liver, 2 min after i.v. injection): 9.74 SUV
- Biodistribution, mean SUV (liver, 10 min after i.v. injection): 6.38 SUV
- Biodistribution, mean SUV (liver, 30 min after i.v. injection): 4.66 SUV
- Biodistribution, mean SUV (liver, 60 min after i.v. injection): 4.75 SUV
- Biodistribution, mean SUV (lungs, 2 min after i.v. injection): 2.93 SUV
- Biodistribution, mean SUV (lungs, 10 min after i.v. injection): 1.78 SUV
- Biodistribution, mean SUV (lungs, 30 min after i.v. injection): 1.63 SUV
- Biodistribution, mean SUV (lungs, 60 min after i.v. injection): 1.92 SUV
- Biodistribution, mean SUV (muscle, 2 min after i.v. injection): 0.50 SUV
- Biodistribution, mean SUV (muscle, 10 min after i.v. injection): 0.83 SUV
- Biodistribution, mean SUV (muscle, 30 min after i.v. injection): 0.75 SUV
- Biodistribution, mean SUV (muscle, 60 min after i.v. injection): 0.79 SUV
- Biodistribution, mean SUV (pancreas, 2 min after i.v. injection): 4.30 SUV
- Biodistribution, mean SUV (pancreas, 10 min after i.v. injection): 2.36 SUV
- Biodistribution, mean SUV (pancreas, 30 min after i.v. injection): 2.06 SUV
- Biodistribution, mean SUV (pancreas, 60 min after i.v. injection): 2.33 SUV
- Biodistribution, mean SUV (pons, 2 min after i.v. injection): 1.53 SUV
- Biodistribution, mean SUV (pons, 10 min after i.v. injection): 1.73 SUV
- Biodistribution, mean SUV (pons, 30 min after i.v. injection): 1.76 SUV
- Biodistribution, mean SUV (pons, 60 min after i.v. injection): 1.85 SUV
- Biodistribution, mean SUV (rest of cerebrum, 2 min after i.v. injection): 2.06 SUV
- Biodistribution, mean SUV (rest of cerebrum, 10 min after i.v. injection): 3.34 SUV
- Biodistribution, mean SUV (rest of cerebrum, 30 min after i.v. injection): 4.37 SUV
- Biodistribution, mean SUV (rest of cerebrum, 60 min after i.v. injection): 5.52 SUV
- Biodistribution, mean SUV (spleen, 2 min after i.v. injection): 2.81 SUV
- Biodistribution, mean SUV (spleen, 10 min after i.v. injection): 1.68 SUV
- Biodistribution, mean SUV (spleen, 30 min after i.v. injection): 1.06 SUV
- Biodistribution, mean SUV (spleen, 60 min after i.v. injection): 1.02 SUV
- Biodistribution, mean SUV (striatum, 2 min after i.v. injection): 1.98 SUV
- Biodistribution, mean SUV (striatum, 10 min after i.v. injection): 3.46 SUV
- Biodistribution, mean SUV (striatum, 30 min after i.v. injection): 4.15 SUV
- Biodistribution, mean SUV (striatum, 60 min after i.v. injection): 7.12 SUV
- Biodistribution, mean SUV (whole cerebrum, 2 min after i.v. injection): 1.96 SUV
- Biodistribution, mean SUV (whole cerebrum, 10 min after i.v. injection): 3.05 SUV
- Biodistribution, mean SUV (whole cerebrum, 30 min after i.v. injection): 3.94 SUV
- Biodistribution, mean SUV (whole cerebrum, 60 min after i.v. injection): 5.00 SUV
